Results: patent US20190328845A1, “IN VIVO SYNTHESIS OF ELASTIC FIBER” (ALLERGAN PHARMACEUTICALS INTERNATIONAL LIMITED, priority 2011, published 2019)

Assays:
[1] = tested on: Dermal human fibroblasts; assay: Elastic fiber formation in the presence of lysyl oxidase inhibitor; type: cell-based; conditions: BAPN added at various time points relative to tropoelastin addition; 72 hours culture
Procedure: The effect of the lysyl oxidase inhibitor BAPN on elastic fiber formation in this system was studied.
Dermal human fibroblasts were grown for 12 days prior to tropoelastin addition as described. Cells were cultured for a further 72 hours after tropoelastin addition. BAPN was added at various time points relative to tropoelastin addition. Samples were stained for elastin and nuclei as described above.

[2] = tested on: human skin fibroblasts; assay: In vitro assay system for elastic fiber synthesis, human skin fibroblasts; type: cell-based; conditions: 7 days
Procedure: Cells were cultured in Dulbecco's Modified Eagle Medium High Glucose (DMEM; Invitrogen) containing 10% fetal bovine serum (FBS; Invitrogen) and 1% (v/v) penicillin/streptomycin (Invitrogen). Media were changed every 2-3 days. Cells were incubated at 37° C. and 5% CO2. To assess the capacity of cells to form elastin fibers 1×10^5 cells were seeded onto glass coverslips in 12 well culture plates. Ten to 17 days post-seeding full-length tropoelastin (Elastagen), or an alternative elastin-derived protein, in PBS was filter-sterilized and added to the cell cultures. Alternative elastin-derived proteins included human skin elastin peptides (Elastin Products Company; HSP72), a C-terminal tropoelastin deletion construct ARKRK (Weiss lab) and a C-terminal tropoelastin substitution construct containing RGDS (Weiss lab). Fiber formation was also assessed in the presence of 50 μM blebbistatin (Sigma). For experiments assessing the effect of repeated tropoelastin additions the protein was added 10, 17 and 24 days post-seeding. Cell matrix thickness was determined by averaging the number of 0.41 μm z slices required to image from the uppermost nuclei to the bottom of the sample in ten randomly chosen fields of view.
At set time points after tropoelastin addition, cells were fixed with either 3% (w/v) formaldehyde or 4% (w/v) paraformaldehyde for 20 min and quenched with 0.2 M glycine. […]

Question: `N#CCCN` [BAPN] was tested. Which “elastic fiber formation in the presence of BAPN” value [1] did it give?
Answer: Its value is “prevents fiber formation”.

Question: How did the “elastin fiber formation in the presence of blebbistatin” value ([2]; 50 μM blebbistatin added at the same time as 125 μg/ml tropoelastin, neonatal fibroblasts) turn out when `Cc1ccc2c(c1)C(=O)C1(O)CCN(c3ccccc3)C1=N2` (stereo not drawn) [blebbistatin] was run?
Answer: Its value is “substantially impaired”.

Question: For +RGDS, which elastin network formation ([2]; 125 μg/ml protein added to primary human neonatal skin fibroblasts (NHF8909) 12 days post-seeding) is on record?
Answer: Its elastin network formation is “Spherule rather than fiber deposition”.
